Measurements: ChEMBL document CHEMBL1142828, “Trypanocidal activity of (-)-cubebin derivatives against free amastigote forms of Trypanosoma cruzi” (Bioorg Med Chem Lett, 2005)

How the values were obtained:
Trypanosoma cruzi [1] = assay: Percentage delyse against amastigote forms of Y strain of Trypanosoma cruzi at 32 uM; type: functional
Trypanosoma cruzi [2] = assay: Trypanocidal activity against amastigote forms of Y strain of Trypanosoma cruzi; type: functional, organism-based
Trypanosoma cruzi [3] = assay: Percentage delyse against amastigote forms of Y strain of Trypanosoma cruzi at 2 uM; type: functional
Trypanosoma cruzi [4] = assay: Percentage delyse against amastigote forms of Y strain of Trypanosoma cruzi at 0.5 uM; type: functional
Trypanosoma cruzi [5] = assay: Percentage delyse against amastigote forms of Y strain of Trypanosoma cruzi at 8 uM; type: functional

SMILES	Delyse (Trypanosoma cruzi [1]) [%]	IC50 (Trypanosoma cruzi [2]) [µM]	Delyse (Trypanosoma cruzi [3]) [%]	Delyse (Trypanosoma cruzi [4]) [%]	Delyse (Trypanosoma cruzi [5]) [%]
c1ccc(COC2OC[C@H](Cc3ccc4c(c3)OCO4)[C@@H]2Cc2ccc3c(c2)OCO3)cc1 (stereo not given in full)	68.8	5.7	38	37	46.8
O=C1OC[C@H](Cc2cc3c(cc2[N+](=O)[O-])OCO3)[C@@H]1Cc1cc2c(cc1[N+](=O)[O-])OCO2	48.5	95.3	48.7	34.6	38.9
CC(=O)OC1OC[C@H](Cc2ccc3c(c2)OCO3)[C@@H]1Cc1ccc2c(c1)OCO2 (stereo not given in full)	26.4	~15000	26	14.5	29
CN(C)CCOC1OC[C@H](Cc2ccc3c(c2)OCO3)[C@@H]1Cc1ccc2c(c1)OCO2 (stereo not given in full)	57.8	4.7	55.4	33.6	50.8
O=C1OC[C@H](Cc2ccc3c(c2)OCO3)[C@@H]1Cc1ccc2c(c1)OCO2	63.6	0.7	57	47.6	57.6
O=C(Cn1ccnc1[N+](=O)[O-])NCc1ccccc1 [BENZNIDAZOLE]	68	0.8	67	38.4	69
